From article PMC5472631 (2017)

Columns and labels:
[1] = tested on: Pu24T (c-myc G-quadruplex DNA) (DNA, G4) TGAGGGTGGTGAGGGTGGGGAAGG; assay: ITC; settings: 100 mM KCl, 10 mM potassium phosphate; pH 7.0, 25 °C; site 1 of 2
[2] = tested on: Pu24T (c-myc G-quadruplex DNA) (DNA, G4) TGAGGGTGGTGAGGGTGGGGAAGG; assay: ligand fluorescence titration; settings: 100 mM KCl, 10 mM potassium phosphate; pH 7.0, 25 °C; site 1 of 2
[3] = tested on: Tel7, d-(T2AG3T)4 (DNA, G4) TTAGGGT; assay: ligand fluorescence titration; settings: 70 mM Na+; 25 °C
[4] = tested on: c-kit21up (c-kit G-quadruplex DNA) (DNA, G4) CGGGCGGGCGCGAGGGAGGGG; assay: ligand fluorescence titration; settings: 100 mM KCl, 10 mM potassium phosphate; pH 7.0, 25 °C
[5] = tested on: Pu24T (c-myc G-quadruplex DNA) (DNA, G4) TGAGGGTGGTGAGGGTGGGGAAGG; assay: UV melting at 295 nm; settings: 100 mM KCl, 10 mM potassium phosphate; pH 7.0; D/N = 2.0; Tm 70.0 to 80.0 °C
[6] = tested on: Pu24T (c-myc G-quadruplex DNA) (DNA, G4) TGAGGGTGGTGAGGGTGGGGAAGG; assay: NMR solution structure (NOESY, restrained MD); settings: 298 K; D/N = 2.0; stacks at 5' and 3' G-tetrads

K1 [1]	Kd1 [2] [µM]	Kd1 [3] [µM]	Kd1 [4] [µM]	ΔTm [5] [°C]	Structure (SMILES)	binding [6]
3.34×10^5 ± 1.50 M^-1	47	–	–	–	O=c1c(-c2ccc(O)cc2)coc2cc(O)ccc12	–
1.10×10^4 ± 7.75 M^-1	88.8	–	–	–	O=c1c(-c2ccc(O)cc2)coc2c([C@@H]3O[C@H](CO)[C@@H](O)[C@H](O)[C@H]3O)c(O)ccc12	–
1.57 × 10^7 ± 2.14 M-1	–	2.13	1.12	10	O=c1c(O)c(-c2ccc(O)c(O)c2)oc2cc(O)cc(O)c12	yes
–	1.5	–	–	–	O=c1cc(-c2ccc(O)c(O)c2)oc2cc(O)cc(O)c12	–
7.35×10^5 ± 1.06 M^-1	1	–	–	–	COc1ccc([C@@H]2CC(=O)c3c(O)cc(O[C@@H]4O[C@H](CO[C@@H]5O[C@@H](C)[C@H](O)[C@@H](O)[C@H]5O)[C@@H](O)[C@H](O)[C@H]4O)cc3O2)cc1O	–
7.23 × 10^5 ± 8.60 M-1	17.1	–	–	–	C[C@@H]1O[C@@H](OC[C@H]2O[C@@H](Oc3c(-c4ccc(O)c(O)c4)oc4cc(O)cc(O)c4c3=O)[C@H](O)[C@@H](O)[C@@H]2O)[C@H](O)[C@H](O)[C@H]1O	–
–	1.3	–	–	–	O=c1c(O)c(-c2ccc(O)cc2)oc2cc(O)cc(O)c12	–
1.65×10^5 ± 0 M^-1	1.4	–	–	–	O=c1c(O)c(-c2cc(O)c(O)c(O)c2)oc2cc(O)cc(O)c12	–
